Experimental data taken from patent US7951775B2, “Methods and pharmaceutical compositions for GnRH-I and GnRH-II modulation of T-cell activity, adhesion, migration and extravasation” (priority 2001, dated 2011).
Entries after “also recorded” stand apart in the source; their conditions may differ.

B1: GnRH-II: unique ten amino acid long neuropeptide, 70% homologous in peptide structure to GnRH-I, encoded by its own gene (peptide)
peptide: QHWSHGWYPGGKRALSSAQDPQNALRPPGRALDTAAGSPVQTAHGLPSDALAPLDDSMPWEGRTTAQWSLHRKRHLARTLLTAAREPRPAPPSSNKV

How the values were obtained:
normal human T-cells [1] = assay: Double immunofluorescence staining for VLA-6 laminin-binding integrin and TCR; type: cell-based; settings: untreated cells about 75% double positive; data not shown
Excerpt: Finally, the possibility that the stimulation of normal human T-cells by either GnRH-I, GnRH-II or anti-CD3+ anti-CD28 mAbs, elevates not only the non-integrin 67 kDa LR but also the expression level of the VLA-6 laminin-binding integrin (known to be expressed on T-cells) was investigated. […] Thus stimulation by GnRH-II and GnRH-I (as well as TCR-activation) primarily increases-the-protein surface expression of the non-integrin 67 kDa LR, but not of the VLA-6 laminin binding integrin.

normal human T-cells [2] = assay: T-cell adhesion to laminin assay; type: cell-based; settings: 10 nM, 48 hours pretreatment; PMA 10 ng/ml positive control; four donors
Experimental: Adhesion of T-cells to laminin was assayed as follows: normal human T-cells, purified from a fresh blood sample, were suspended (1×10^6 cells/ml) in rest medium (RPMI-1640, supplemented with 10% fetal calf serum (Sigma Chemical Co., St. Louis, Mo.), 1% antibiotics, 1% glutamine (Biological Industries, Beit Haemek, Israel) and 0.4% fungizone (GibcoBRL, Life Technologies Ltd., Paisley, Scotland)). The cells were then supplemented with 10 nM GnRH-I or GnRH-II and incubated for variable periods of time (0.5-72 hours, 37° C., 7.5% CO2 humidified incubator). Following incubation the cells were washed and resuspended in adhesion medium (RPMI-1640 supplemented with 0.1% bovine serum albumin (BSA, Sigma)). […] The optical density (OD) was measured at 405 nm in a standard ELISA reader. […]
To study the functional consequences of the increase in the 67 kDa LR expression level following GnRH stimulation, the ability of GnRH-treated normal human T-cells to adhere to laminin was assessed. […] In parallel, increasing numbers of untreated cells were seeded on separate plates, in order to establish a standard curve, enabling the relation of results obtained in units of fluorescence intensity (OD) to actual number of cells.

EL-4 T-lymphoma cells = assay: Homing of GnRH-treated EL-4 T-lymphoma in vivo into specific organs of normal syngeneic mice; design: species or system mouse; settings: EL-4 cells treated ex vivo 10 nM; for mean number of EL-4 labeled cells detected in the bone marrow: 48 h, C57BL/6 recipients n=5, untreated 149825±8424; for increase in entry into bone marrow over untreated control cells: C57BL/6 recipients; for entry of EL-4 cells into the spleen / level of EL-4 cells entry into thymus, kidney and liver, or their number in the plasma: vs untreated cells
Experimental: Mouse EL-4 T-lymphoma cells were incubated without any further treatment or with either GnRH-I or GnRH-II (10 nM) for […] (37° C., 7.5% CO2 in a humidified incubator) and then washed, counted, and fluorescently labeled with BCECF AM (30 minutes 37° C., 7.5% CO2 humidified incubator), as described above.
Normal syngeneic C57BL/6 female recipient mice were then subjected to 300 rad total body irradiation, and several hours later inoculated I.P with 5×10^6 cells/mouse of either untreated or GnRH-treated EL-4 lymphoma cells. In parallel, samples from the treated and GnRH inoculated EL-4 cells were tested by double immunofluorescence (as described above) for the level of their 67 kD LR and TCRαβ. After […], the spleen, thymus, kidney, liver, bone marrow, and a fixed volume of blood were removed from the recipient mice into tubes containing 10 ml PBS, and cell suspensions were prepared from each organ of each individual mouse. Following further dilution in PBS for the kidney (1:3) and liver (1:10), the number of fluorescent cells, as well as the total number of cells in each tube, were counted by flow cytometry (FACSORT).
To assess whether exposure of EL-4 T-lymphoma cells to GnRH modulated their immigration and organ invasion profiles in vivo, the EL-4 cells were treated ex vivo with GnRH-I or GnRH-II (10 nM, 48 h), loaded with a fluorescent dye, and inoculated into normal syngeneic C57BL/6 (H-2b) recipient mice. After 48 hours, the spleen, thymus, kidney, liver, bone marrow, and a fixed volume of blood were removed, individual cells suspensions were prepared and the number of labeled immigrating cells, as well as the total number of cells present in each organ (labeled+non-labeled) was counted by flow cytometry.

Row | Molecule | expression level of VLA-6 laminin-binding integrin (normal human T-cells [1]) | T-cell adhesion to laminin (normal human T-cells [2]) | mean number of EL-4 labeled cells detected in the bone marrow (EL-4 T-lymphoma cells) | increase in entry into bone marrow over untreated control cells (EL-4 T-lymphoma cells) | entry of EL-4 cells into the spleen (EL-4 T-lymphoma cells) | level of EL-4 cells entry into thymus, kidney and liver, or their number in the plasma (EL-4 T-lymphoma cells)
1 | pGlu-His-Trp-Ser-Tyr-Gly-Leu-Arg-Pro-Gly-NH2 [GnRH-I] | unaffected | as efficiently as PMA; also recorded: as markedly as does PMA | 321400±15165 | 115% | significant enhanced entry | did not affect
2 | B1 | unaffected | as efficiently as PMA; also recorded: as markedly as does PMA | 219280±14003 | 46% | significant enhanced entry | did not affect
